Measurements from patent publication US8633195B1, “Method of inhibiting apolipoprotein-E expression comprising administering a triarylmethyl amine compound” (Fresno California State University, priority 2012, dated 2014).

System: apoE expression in human HepG2 liver cells
Assay: ApoE ELISA on conditioned medium of human HepG2 liver cells
Type: cell-based
Conditions: 10 μM compound, 24 hours, normalized to DMSO treated wells
Protocol: To obtain the data shown in Table 4, the human HepG2 liver cells (ATCC, HB-8065 were maintained in RPMI medium (Mediatech) supplemented with 10 mM HEPES, 1 mM sodium pyruvate, 4.5 g/L glucose, 1% penicillin/streptomycin, and 10% bovine growth serum (HyClone) at 37° C. with 5% CO2
(§1) Compound Nos. 13, 31, 33, 35 or 36—as listed in Table 1—were individually dissolved in DMSO at a stock concentration of 10 mM and individually tested. For ELISA's, 1.6×10^4 cells/96-well were grown for 1 day in RPMI, followed by a 24 hour equilibration in serum-free Opti-MEM (Life Technologies). Treatments were carried out in quadruplicate with 100 μL of fresh Opti-MEM containing 10 μM of compound or vehicle (0.1% DMSO) for 24 hours. Conditioned medium from these samples were then diluted 2-fold with incubation buffer (PBS+0.05% Tween-20+0.1% BSA) and analyzed with a human apoE HRP ELISA kit (Mabtech) according to the manufacturer's protocol.
A standard curve was used to derive sample apoE concentrations. The cells in the 96-well plates were used to determine the total cell number using CyQUANT reagent (Life Technologies). Sample apoE concentrations were adjusted for total cell number and then normalized to DMSO treated wells. Results for each set of compounds tested in parallel (n=3) were analyzed by a one-tailed t-test.
The data in Table 3 were obtained by using an apoE ELISA assay to monitor human HepG2 cell production of apoE after the HepG2 cells were treated with Compound Nos. 13, 31, 33, 35 and 36, as listed on Table 1. The HepG2 liver cells were treated for 24 hours with a 10 μM concentration of each of Compound Nos. 13, 31, 33, 35 and 36, as listed on Table 1.

SMILES	ApoE (ng/ml) Normalized for Cell Count and Vehicle Treatment
CC(C)CNC(c1ccccc1)(c1ccccc1)c1ccc2ccccc2c1 [Compound 35, isobutyl-(naphthalen-2-yl-diphenyl-methyl)-amine]	0.78 ng/mL
c1ccc(C(c2ccccc2)(c2ccc3ccccc3c2)N2CCOCC2)cc1 [Compound 33, 4-(Naphthalen-2-yl-diphenyl-methyl)-morpholine]	0.77 ng/mL
CCC(C)NC(c1ccccc1)(c1ccccc1)c1ccc2ccccc2c1 (stereo not shown) [Compound 36, sec-butyl-(naphthalen-2-yl-diphenyl-methyl)-amine]	0.81 ng/mL
c1ccc(C(NCC2CCCCC2)(c2ccccc2)c2ccccc2)cc1 [Compound 13, cyclohexylmethyl-trityl-amine]	1.03 ng/mL
c1ccc(C(c2ccccc2)(c2ccc3ccccc3c2)N2CCCC2)cc1 [Compound 31, 1-(naphthalen-2-yl-diphenyl-methyl)-pyrrolidine]	0.64 ng/mL

System: apoE mRNA in CCF-STTG1 human astrocytoma cells
Assay: ApoE mRNA qPCR in CCF-STTG1 astrocytoma cells
Type: cell-based
Set-up: unit not given here
Conditions: 24 hours in OptiMEM, HPRT1 and β-actin as housekeeping genes
From the text: (§2) Quantitative reverse transcription polymerase chain reaction (qPCR) is a laboratory technique used to amplify and quantify the steady-state levels of apoE messenger RNA (mRNA) by converting the copy DNA (cDNA). The targeted DNA molecule quantity can be determined as a relative amount when normalized to housekeeping genes. For qPCR, reverse transcription is used to quantify the amount of mRNA produced through the balance between transcription rate and degradation rates. The amount of mRNA available is the one factor which can affect the overall protein expression. Quantification of the cDNA produced during reverse transcription of the mRNA may be accomplished by detecting the fluorescent markers, such as fluorophores, that selectively hybridize with the DNA target.
(§3) The CCF-STTG1 (ATCC, CRL-1718) human astrocytoma cells were treated with one of the selected triarylmethyl amine compounds for 24 hours in OptiMEM. The selected triarylmethyl amine compounds were individually dissolved in DMSO at a stock concentration of 10 mM and individually tested. Total RNA was extracted using the RNeasy Plus Mini Kit (Qiagen). Genomic DNA (gDNA) was removed by centrifugation through gDNA eliminator spin columns included with the kit. Samples of total RNA were reverse transcribed following instructions in the Superscript III first strand synthesis kit (Life Technologies). ApoE, HPRT1, and β-actin cDNA levels were quantified by TaqMan multiplex quantitative PCR using a CFX96 Real-Time PCR Detection System (BioRad). Reactions were carried out with SensiMix II Probe Master Mix (Bioline) in a 20 μL total volume containing 5-30 ng of cDNA template. Fluorescent labels and primer/probe concentrations were as follows: apoE (5′-FAM, 600 nM/300 nM), HPRT1 (5′-TEX-615, 100 nM/25 nM), and β-actin (5′-Cy5, 100 nM/25 nM). ZEN double quenched probes (Integrated DNA technologies) were used for all apoE reactions. The reactions were performed in triplicate and the results were analyzed using qbasePLUS (Biogazelle) with HPRT1 and β-actin as housekeeping genes.

SMILES	ApoE (ng/ml) Normalized for Cell Count and Vehicle Treatment
CC(C)CNC(c1ccccc1)(c1ccccc1)c1ccc2ccccc2c1 [Compound 35, isobutyl-(naphthalen-2-yl-diphenyl-methyl)-amine]	0.87
c1ccc(C(c2ccccc2)(c2ccc3ccccc3c2)N2CCOCC2)cc1 [Compound 33, 4-(Naphthalen-2-yl-diphenyl-methyl)-morpholine]	0.88
CCC(C)NC(c1ccccc1)(c1ccccc1)c1ccc2ccccc2c1 (stereo not shown) [Compound 36, sec-butyl-(naphthalen-2-yl-diphenyl-methyl)-amine]	0.85
c1ccc(C(NCC2CCCCC2)(c2ccccc2)c2ccccc2)cc1 [Compound 13, cyclohexylmethyl-trityl-amine]	1.10
c1ccc(C(c2ccccc2)(c2ccc3ccccc3c2)N2CCCC2)cc1 [Compound 31, 1-(naphthalen-2-yl-diphenyl-methyl)-pyrrolidine]	0.86

System: apoE mRNA in H4 human neuroglioma cells
Assay: ApoE mRNA qPCR in H4 neuroglioma cells
Type: cell-based
Set-up: unit not given here
Conditions: 24 hours in OptiMEM, HPRT1 and β-actin as housekeeping genes
From the text: as §2
The selected triarylmethyl amine compounds were individually dissolved in DMSO at a stock concentration of 10 mM and individually tested. Total RNA was extracted using the RNeasy Plus Mini Kit (Qiagen). Genomic DNA (gDNA) was removed by centrifugation through gDNA eliminator spin columns included with the kit. Samples of total RNA were reverse transcribed following instructions in the Superscript III first strand synthesis kit (Life Technologies). ApoE, HPRT1, and β-actin cDNA levels were quantified by TaqMan multiplex quantitative PCR using a CFX96 Real-Time PCR Detection System (BioRad).

SMILES	ApoE (ng/ml) Cell Count Normalized for Cell Count and Vehicle Treatment
c1ccc(C(c2ccccc2)(c2ccc3ccccc3c2)N2CCOCC2)cc1 [Compound 33, 4-(Naphthalen-2-yl-diphenyl-methyl)-morpholine]	0.59

System: apoE mRNA in HepG2 human liver cells
Assay: ApoE mRNA qPCR in HepG2 liver cells
Type: cell-based
Conditions: 24 hours in OptiMEM, HPRT1 and β-actin as housekeeping genes
From the text: as §2
as §3, with “HepG2” for “CCF-STTG1”, “HB-8065)” for “CRL-1718)”, “liver” for “astrocytoma”, “μl” for “μL”

SMILES	ApoE (ng/ml) Normalized for Cell Count and Vehicle Treatment
CC(C)CNC(c1ccccc1)(c1ccccc1)c1ccc2ccccc2c1 [Compound 35, isobutyl-(naphthalen-2-yl-diphenyl-methyl)-amine]	1.03 ratio to vehicle
c1ccc(C(c2ccccc2)(c2ccc3ccccc3c2)N2CCOCC2)cc1 [Compound 33, 4-(Naphthalen-2-yl-diphenyl-methyl)-morpholine]	1.22 ratio to vehicle
CCC(C)NC(c1ccccc1)(c1ccccc1)c1ccc2ccccc2c1 (stereo not shown) [Compound 36, sec-butyl-(naphthalen-2-yl-diphenyl-methyl)-amine]	0.93 ratio to vehicle
c1ccc(C(NCC2CCCCC2)(c2ccccc2)c2ccccc2)cc1 [Compound 13, cyclohexylmethyl-trityl-amine]	1.16 ratio to vehicle
c1ccc(C(c2ccccc2)(c2ccc3ccccc3c2)N2CCCC2)cc1 [Compound 31, 1-(naphthalen-2-yl-diphenyl-methyl)-pyrrolidine]	0.86 ratio to vehicle

System: apoE expression in human CCF-STTG1 astrocytoma cells
Assay: ApoE ELISA on conditioned medium of human CCF-STTG1 astrocytoma cells
Type: cell-based
Conditions: 10 μM compound, 24 hours
Protocol: The triarylmethyl amine compounds, including the ones shown in TABLE 1, were tested for biological effects on mammalian cells in an ELISA, an assay well-known in the art. […] The ELISA technique involves immobilizing an apoE-specific capture antibody to a 96-well plate, addition of sample (conditioned medium from astrocytoma cells treated with the compound for 24 hours), and detection of the bound apoE using a second apoE-specific biotinylated antibody and streptavidin-HRP.
The Mabtech ELISA kit detects the presence of three apoE isoforms: apoE2, apoE3, and apoE4.
as §1, with “All triarylmethyl amine compounds” for “Compound Nos. 13, 31, 33, 35 or 36—as”, “1 were” for “1—were”, “protocol. ApoE concentration in the sample was calculated based on a standard curve derived using known amounts of purified apoE supplied with the kit. The cells in the 96-well plates were used to determine the total cell number using CyQUANT reagent (Life Technologies).” for “protocol.”
The astrocytoma cells were treated for 24 hours with a 10 μM concentration of each of the individual 37 compounds listed in Table 1.

SMILES	Inhibition Percentage of ApoE Expression
CC(C)CNC(c1ccccc1)(c1ccccc1)c1ccc2ccccc2c1 [Compound 35, isobutyl-(naphthalen-2-yl-diphenyl-methyl)-amine]	50%
COc1ccc(C(c2ccccc2)(c2ccccc2)N(C)C)cc1 [Compound 16]	35%
CN(C)C(c1ccccc1)(c1ccccc1)c1ccccc1 [Compound 1]	8%
c1ccc(C(c2ccccc2)(c2ccc3ccccc3c2)N2CCOCC2)cc1 [Compound 33, 4-(Naphthalen-2-yl-diphenyl-methyl)-morpholine]	46%
CCN(CC)C(c1ccccc1)(c1ccccc1)c1ccc(OC)cc1 [Compound 17, Diethyl-[(4-methoxy-phenyl)-diphenyl-methyl]-amine]	17%
CCC(C)NC(c1ccccc1)(c1ccccc1)c1ccc2ccccc2c1 (stereo not shown) [Compound 36, sec-butyl-(naphthalen-2-yl-diphenyl-methyl)-amine]	66%
CN(C)C(c1ccccc1)(c1ccccc1)c1ccc2ccccc2c1 [Compound 28]	35%
c1ccc(C(c2ccccc2)(c2ccc3ccccc3c2)N2CCCC2)cc1 [Compound 31, 1-(naphthalen-2-yl-diphenyl-methyl)-pyrrolidine]	49%

Same assay, conditions: 10 μM compound, 24 hours, listed as compound 31

SMILES	Inhibition Percentage of ApoE Expression
c1ccc(C(c2ccccc2)(c2ccc3ccccc3c2)N2CCCC2)cc1 [Compound 31, 1-(naphthalen-2-yl-diphenyl-methyl)-pyrrolidine]	about 49%

Same assay, conditions: 10 μM compound, 24 hours, listed as compound 33

SMILES	Inhibition Percentage of ApoE Expression
c1ccc(C(c2ccccc2)(c2ccc3ccccc3c2)N2CCOCC2)cc1 [Compound 33, 4-(Naphthalen-2-yl-diphenyl-methyl)-morpholine]	about 46%

Same assay, conditions: 10 μM compound, 24 hours, listed as compound 35

SMILES	Inhibition Percentage of ApoE Expression
CC(C)CNC(c1ccccc1)(c1ccccc1)c1ccc2ccccc2c1 [Compound 35, isobutyl-(naphthalen-2-yl-diphenyl-methyl)-amine]	about 50%

Same assay, conditions: 10 μM compound, 24 hours, listed as compound 36

SMILES	Inhibition Percentage of ApoE Expression
CCC(C)NC(c1ccccc1)(c1ccccc1)c1ccc2ccccc2c1 (stereo not shown) [Compound 36, sec-butyl-(naphthalen-2-yl-diphenyl-methyl)-amine]	about 66%

Same assay, conditions: 10 μM compound, 24 hours, normalized to DMSO treated cells

SMILES	ApoE (ng/ml) Normalized for Cell Count and Vehicle Treatment
CC(C)CNC(c1ccccc1)(c1ccccc1)c1ccc2ccccc2c1 [Compound 35, isobutyl-(naphthalen-2-yl-diphenyl-methyl)-amine]	0.50 ng/mL
COc1ccc(C(c2ccccc2)(c2ccccc2)N(C)C)cc1 [Compound 16]	0.65 ng/mL
CN(C)C(c1ccccc1)(c1ccccc1)c1ccccc1 [Compound 1]	0.92 ng/mL
c1ccc(C(c2ccccc2)(c2ccc3ccccc3c2)N2CCOCC2)cc1 [Compound 33, 4-(Naphthalen-2-yl-diphenyl-methyl)-morpholine]	0.54 ng/mL
CCN(CC)C(c1ccccc1)(c1ccccc1)c1ccc(OC)cc1 [Compound 17, Diethyl-[(4-methoxy-phenyl)-diphenyl-methyl]-amine]	0.83 ng/mL
CCC(C)NC(c1ccccc1)(c1ccccc1)c1ccc2ccccc2c1 (stereo not shown) [Compound 36, sec-butyl-(naphthalen-2-yl-diphenyl-methyl)-amine]	0.34 ng/mL
CN(C)C(c1ccccc1)(c1ccccc1)c1ccc2ccccc2c1 [Compound 28]	0.65 ng/mL
c1ccc(C(NCC2CCCCC2)(c2ccccc2)c2ccccc2)cc1 [Compound 13, cyclohexylmethyl-trityl-amine]	0.49 ng/mL
c1ccc(C(c2ccccc2)(c2ccc3ccccc3c2)N2CCCC2)cc1 [Compound 31, 1-(naphthalen-2-yl-diphenyl-methyl)-pyrrolidine]	0.51 ng/mL
